The results in this text go back to PubChem BioAssay AID1996.

In brackets after ≈: the same amount, converted by molar mass.

For the data set the following is noted: buffer; pH 7.4; 200.0 µM.
`Cc1ccc(NC(=O)NCCCN2CCCC2=O)cc1Cl`: the kinetic solubility (commonly solubility judged after dilution from a stock solution rather than from solid) was more than 46.5 µg/mL. `COCCCNC(=S)Nc1ccccc1[N+](=O)[O-]` came in with a solubility (kinetic) of more than 40.4 µg/mL.

With `CC1(c2ccc(NC(=O)c3ccccc3F)cc2)CC1(Cl)Cl` (stereo not drawn), the solubility (kinetic) is less than 0.7 µg/mL. The result for `FC(F)Oc1ccc(NC(=S)NC2CCCCCCC2)cc1` reads 0.7 µg/mL (≈ 2.13 µM).

As to `OCCCc1cn(-c2ccccc2)c2ccccc12`, the kinetic solubility was determined as 22.1 µg/mL (≈ 87.9 µM).

`Nc1nc(N)n(-c2ccccc2)c(=Nc2ccccc2)n1` returned a kinetic solubility of more than 41.7 µg/mL. For `COc1ccc2[nH]cc(CCNC(=O)C3CCCCC3)c2c1` the value was 42.7 µg/mL (≈ 142 µM); for `CC1=C(C(=O)OC(C)C)C(c2cccs2)NC(=O)N1` (stereo not drawn), 37.2 µg/mL (≈ 133 µM); for `CC1CCCC(NC(=O)CCNC(=O)c2ccc([N+](=O)[O-])cc2)C1C` (stereo not drawn), more than 52.1 µg/mL.

In turn, `COc1ccc(OC)c(NC(=O)COC(=O)C2CCC2)c1` came in with a solubility (kinetic) of more than 44 µg/mL. For `CCOC(=O)c1nsnc1NCCCl` the value was 22.7 µg/mL (≈ 96.3 µM).

For the compound `CCn1c(Oc2ccccc2)nc2c1c(=O)n(C)c(=O)n2C`, the solubility (kinetic) turned out to be 37.8 µg/mL (≈ 126 µM). The result for `Cc1ccsc1C(=O)NCC(C)(C)N1CCOCC1` reads more than 42.4 µg/mL; that for `CCc1cc(C(=O)NC(C)C2CCCO2)cs1` (stereo not drawn), more than 38 µg/mL; that for `COCc1cc(=O)[nH]c(/N=C(\N)Nc2ccc(Cl)c(Cl)c2)n1`, 0.2 µg/mL (≈ 0.584 µM). For `O=Cc1ccccc1OCCCOc1cccc2cccnc12` the value was 9.7 µg/mL (≈ 31.6 µM). For `S=C(Nc1ccccc1)N1CCc2ccccc21` the value was 23.8 µg/mL (≈ 93.6 µM). Consider `Cc1ccc(NC(=O)COc2ccc(C(=O)c3ccccc3)cc2)c(O)c1`, for which the solubility (kinetic) came out at 2.8 µg/mL (≈ 7.75 µM). The result for `CC(C)(C)OC(=O)NCCc1n[nH]c(=S)o1` reads more than 36.8 µg/mL. Turning to `O=C(NCCCN1CCOCC1)c1ccc(Cl)cc1Cl`, the kinetic solubility was more than 47.6 µg/mL. For `NC(=O)C1CCN(C(=O)COc2ccc3c4c(c(=O)oc3c2)CCCC4)CC1` the value was more than 57.7 µg/mL. For `CC(C)CCNC(=O)c1cc2c(s1)-c1ccccc1S(=O)(=O)C2` the value was 2.1 µg/mL (≈ 6.01 µM); for `CC(NS(=O)(=O)c1ccccc1)C(=O)NC1CCCC1` (stereo not drawn), more than 44.5 µg/mL; for `Cc1csc(NC(=O)CCCNC(=O)c2ccc(Cl)cc2)n1`, 10.2 µg/mL (≈ 30.2 µM). The result for `CN(c1ccccc1)S(=O)(=O)c1cccc(NC(=O)CSc2nccc(=O)[nH]2)c1` reads more than 64.6 µg/mL; that for `NC(=O)c1ccccc1NC(=O)CCn1c(=S)oc2ccccc21`, 43.2 µg/mL (≈ 127 µM); that for `CCC(CC)C(=O)c1c[nH]c(C(=O)OC)c1`, more than 33.5 µg/mL. On to `Cc1nc(SCC(=O)Nc2ccccc2Cl)oc1C`, for which the solubility (kinetic) is more than 44.5 µg/mL. In the case of `O=C1c2ccccc2NC(c2ccccc2)N1Cc1ccccc1` (stereo not drawn), the kinetic solubility was 7.9 µg/mL (≈ 25.1 µM). For `COc1ccc2[nH]c(=O)c(CNc3cc(C)ccc3C)cc2c1` the value was 1.8 µg/mL (≈ 5.84 µM); for `O=C(Nn1cnc2ccccc2c1=O)c1ccc([N+](=O)[O-])cc1`, more than 46.5 µg/mL; for `CC1=C(C(=O)OC2CCCC(C)C2)C(c2ccccc2)NC(=O)N1` (stereo not drawn), 4.3 µg/mL (≈ 13.1 µM).

Take `COc1ccccc1NC(=O)COc1ccccc1C(=O)Nc1ccccc1`: the kinetic solubility worked out at 5.9 µg/mL (≈ 15.7 µM).

The compound `O=C(O)/C=C/C(=O)Nc1nc(-c2ccc3ccccc3c2)cs1` gave a solubility (kinetic) of more than 48.7 µg/mL. For `NC(=O)Nc1ccc(C(=O)OCC(=O)N2CCCC2=O)cc1` the value was more than 45.8 µg/mL.

Consider `Cc1ccccc1-c1noc(-c2ccccc2C(=O)NCC2CCCO2)n1` (stereo not drawn), for which the solubility (kinetic) came to 49.6 µg/mL (≈ 136 µM).

On to `CC(NC(=O)COC(=O)c1ccc2ccccc2n1)c1ccccc1` (stereo not drawn), for which the kinetic solubility was 5.3 µg/mL (≈ 15.9 µM). The result for `Oc1c(I)cc(Cl)c2cccnc12` reads 0.8 µg/mL (≈ 2.62 µM); that for `C=CCn1cc(/C=C2\SC(N3CCOCC3)=NC2=O)c2ccccc21`, 9.5 µg/mL (≈ 26.9 µM).

In turn, `CC1(C)C(=O)Nc2ccccc2N1C(=O)COC(=O)Cc1ccccc1F` registered a kinetic solubility of more than 55.6 µg/mL. For `C=C1C(C(=O)Nc2ccccc2)C1C(=O)Nc1ccccc1` (stereo not drawn) the value was less than 0.3 µg/mL; for `CCCNC(=O)CN1CCC(c2nc3ccccc3[nH]2)CC1`, 34 µg/mL (≈ 113 µM); for `COC(=O)c1c(-c2ccccc2)c[nH]c1C`, 32 µg/mL (≈ 149 µM). The result for `Fc1ccc(-c2csc(-c3ccncc3)n2)cc1` reads 1.3 µg/mL (≈ 5.07 µM); that for `Cc1c(N2CCCC2)cc2c(c1N)C(C)(C)CC2(C)C`, 19.2 µg/mL (≈ 70.5 µM). The result for `O=[N+]([O-])c1ccc2c(c1)Nc1nc3ccccc3nc1N2` reads 1.4 µg/mL (≈ 5.01 µM); that for `COc1nc(Nc2ccccc2F)nc(OC)n1`, more than 37.5 µg/mL; that for `Br.Cc1ccc(C(=O)Cn2c(=N)n(N)c3ccccc32)cc1`, more than 54.2 µg/mL.

On to `COc1ccc2nc(NC(=O)c3c(C)noc3C)sc2c1`, for which the solubility (kinetic) was more than 45.5 µg/mL. `Cc1cc(C(=O)COC(=O)c2cccnc2Cl)c(C)n1C` gave a kinetic solubility of 13 µg/mL (≈ 42.4 µM). With `Cc1ccc(C(C[N+](=O)[O-])c2c(N)n(C)c(=O)n(C)c2=O)cc1` (stereo not drawn), the solubility (kinetic) is more than 47.7 µg/mL. In the case of `CC(=O)c1cccc(NC(=O)CCNC(=O)c2cccc(C)c2)c1`, the solubility (kinetic) turned out to be 20.5 µg/mL (≈ 63.2 µM).

Compound `CCCc1cc(=O)[nH]c(SCC(=O)N2CCCC2=O)n1` registered a solubility (kinetic) of more than 44.3 µg/mL. For `S=C(NCc1ccccc1)Nc1cccc2ccccc12` the value was 3.8 µg/mL (≈ 13 µM); for `Cc1cc(C(=O)Nc2ccncc2)ccc1[N+](=O)[O-]`, 18.4 µg/mL (≈ 71.5 µM); for `O=C(Cn1nc(Cl)nc1Cl)c1ccccc1`, more than 38.4 µg/mL. The result for `CCCC(=O)NCc1nc2ccccc2n1CC(=O)c1ccccc1` reads more than 50.3 µg/mL. The result for `O=[N+]([O-])c1ccc(N2CCN(C(=S)Nc3ccc(F)cc3)CC2)cc1` reads 0.4 µg/mL (≈ 1.11 µM); that for `COc1ccc2c(c1OC)C(=O)N1C2SC(C)(C)[C@H]1C(=O)NC1CC1` (stereo partly drawn), more than 54.4 µg/mL; that for `C/C(=C\c1cccs1)C(=O)c1c(C)cc(C)[nH]c1=O`, more than 41 µg/mL. On to `Fc1ccccc1-c1nc(-c2ccc(Br)o2)no1`, for which the solubility (kinetic) is less than 0.3 µg/mL. For `COc1cccc(C(CNC(=O)c2ccc(Cl)c(S(=O)(=O)N3CCCC3)c2)N(C)C)c1` (stereo not drawn) the value was more than 69.9 µg/mL.

On to `Cc1ccc(CNC(=O)CSc2nc3ccccc3[nH]2)cc1`, for which the kinetic solubility is 31.1 µg/mL (≈ 99.9 µM). For `O=[N+]([O-])c1ccc(CSc2ccc(S(=O)(=O)N3CCCCC3)cn2)cc1` the value was 2.4 µg/mL (≈ 6.1 µM). The result for `Cc1ccc(S(=O)(=O)N2CCN(C(=O)c3ccco3)CC2)cc1C` reads 46 µg/mL (≈ 132 µM). The compound `COc1cccc(NC(=O)c2nc(SC)ncc2Cl)c1` returned a kinetic solubility of 2.4 µg/mL (≈ 7.75 µM). The result for `COc1ccc(C(=O)Nc2ccc3ncccc3c2)cc1` reads 12.1 µg/mL (≈ 43.5 µM); that for `O=C(NCCc1ccc(F)cc1)NC12CC3CC(CC(C3)C1)C2`, 6.5 µg/mL (≈ 20.5 µM); that for `COCCN(C(=S)Nc1cccc(C)c1)C(C)c1cccnc1` (stereo not drawn), 48.2 µg/mL (≈ 146 µM).

Compound `CSc1ccc(S(=O)(=O)NC2CC3CCC2C3)cc1` (stereo not drawn) displayed a kinetic solubility of 29.7 µg/mL (≈ 99.9 µM). The result for `Cc1cccc(/N=C/c2sc3ccccc3c2O)n1` reads 1.1 µg/mL (≈ 4.1 µM); that for `CC(=O)O.O=C(NCC1CCCCN1)c1cc(OCC(F)(F)F)ccc1OCC(F)(F)F` (stereo not drawn), more than 71.2 µg/mL; that for `CN(C)C(=O)CS(=O)(=O)c1ccc(Cl)cc1`, 32.7 µg/mL (≈ 125 µM). For `Cc1cc2ncc(-c3ccccc3)nc2cc1C` the value was less than 0.3 µg/mL; for `O=C(CCN1C(=O)c2cccc3cccc(c23)C1=O)NCC1CCCO1` (stereo not drawn), more than 52.9 µg/mL; for `N/C(CC(=O)Nc1ccc(F)cc1F)=N\OC(=O)c1cccs1`, 16.3 µg/mL (≈ 48 µM).

The compound `Cc1cc(C(=O)Nc2ccc(F)c(Cl)c2)on1` showed a kinetic solubility of 18.3 µg/mL (≈ 71.9 µM).

Turning to `O=C(Nc1ccccc1)OC1CCCCc2cccnc21` (stereo not drawn), the solubility (kinetic) was 41.6 µg/mL (≈ 147 µM). The result for `CC(=O)c1ccc(N2CCN(CC(O)c3ccccc3)CC2)cc1` (stereo not drawn) reads more than 48.7 µg/mL; that for `Cc1cc(C(=O)OCC(=O)NCc2ccccc2)c2ccccc2n1`, 13.9 µg/mL (≈ 41.6 µM); that for `N#C/C(=C\c1cccnc1)c1nc2ccccc2[nH]1`, 27.4 µg/mL (≈ 111 µM).

`O=C(O)CCNc1ccc(Cl)cc1`: the solubility (kinetic) was more than 29.9 µg/mL. `COc1ccc(Nc2ccc(C(N)=O)cc2[N+](=O)[O-])cc1` had a solubility (kinetic) of 14.3 µg/mL (≈ 49.8 µM). The result for `CCON1C(=O)C(C)(C)N(OCC)C(=O)C1(C)C` reads more than 38.7 µg/mL; that for `CC1(C)S[C@@H]2[C@H](NC(=O)C(C(=O)[O-])c3ccccc3)C(=O)N2[C@H]1C(=O)[O-].[Na+]` (stereo partly drawn), more than 63.4 µg/mL. As to `COc1ccc(N(Cc2cc(=O)[nH]c3ccccc23)C(C)=O)cc1`, the kinetic solubility was more than 48.4 µg/mL.

`O=C(Nc1nc2ccccc2[nH]1)c1cc2ccccc2o1` displayed a kinetic solubility of 2.1 µg/mL (≈ 7.57 µM). In the case of `Cc1cccc(N2C(=O)CN(Cc3ccccc3)C2=S)c1`, the kinetic solubility is 10 µg/mL (≈ 33.7 µM).

`O=C(NC(=S)N1CCCC1)c1cccc([N+](=O)[O-])c1` yielded a solubility (kinetic) of 39.5 µg/mL (≈ 141 µM).

Regarding `COc1ccc(NC(=O)CCN2C(=O)[C@@H]3[C@H](C2=O)[C@H]2C=C[C@@H]3C2)cc1`, the solubility (kinetic) was determined as 46.7 µg/mL (≈ 137 µM).

`O=C(COC(=O)/C=C/c1cc(Br)ccc1F)NC1CC1`: the solubility (kinetic) was determined as 7 µg/mL (≈ 20.5 µM). The result for `Nc1c(NC=O)c(=O)n(Cc2ccccc2)c(=O)n1Cc1ccccc1` reads 52.1 µg/mL (≈ 149 µM); that for `O=C(COC(=O)c1ccc(OC(F)F)cc1)NCc1cccs1`, 35.5 µg/mL (≈ 104 µM); that for `COc1ccc(CC(=O)Oc2ccc(C#N)cc2)cc1`, more than 40.1 µg/mL. As for `COc1ccc(N2C(=O)NC(=O)C2=O)cc1`, the kinetic solubility was more than 33 µg/mL. The result for `O=C1CCCN1CCCNC(=S)Nc1ccccc1Cl` reads 38.4 µg/mL (≈ 123 µM); that for `O=C1CC(=O)N(c2cccc(C(F)(F)F)c2)C(=O)N1`, more than 40.8 µg/mL; that for `CCOc1ccc2nc(SCC(=O)Nc3nonc3C)[nH]c2c1`, 2.2 µg/mL (≈ 6.6 µM). The result for `CCOC(=O)C1=C(C)NC(C)=C(C(=O)OCC)C1C(=O)OCC(=O)NCc1ccccc1` reads more than 66.7 µg/mL; that for `COc1ccccc1N1C(=O)C=C(Sc2nc(C)cc(C)n2)C1=O`, 9.1 µg/mL (≈ 26.7 µM); that for `Cc1ccccc1C(=O)c1cccn1CC(=O)N1CCCCC1`, more than 46.6 µg/mL. Take `Cc1ccc(C(=O)COC(=O)CN2C(=O)C3C4CCC(C4)C3C2=O)cc1C` (stereo not drawn): the kinetic solubility worked out at 46.2 µg/mL (≈ 125 µM).

Compound `Cl.O=C(NC(=S)N1CCN(c2ccccc2)CC1)c1ccco1` returned a solubility (kinetic) of more than 52.8 µg/mL.
